Results as given in patent US20110262508A1, “ANTIMICROBIAL COMPOSITIONS, FORMULATIONS AND USES THEREOF” (priority 2007, published 2011).
Values after ≈ are worked out from the molar mass of the structure shown. Peptide text beside a SMILES is read from it.

Columns and labels:
[1] = test system: A. baumannii ATCC 19606, Acinetobacter spp. ATCC 17903, Acinetobacter spp. ATCC 19004, E. coli BL21, S. aureus, S. typhimurium AroA, P. aeruginosa, P. …; experiment: Antibacterial spectrum over the serial dilution panel (Table 6); assay type: cell-based; conditions: summary of Table 6
Method: Synthetic peptides were tested for their ability to inhibit bacterial growth in liquid culture. The peptides were added at a concentration of between about 5 μM and about 10 μM to individual wells of 96-deep-well dishes that contained liquid growth media freshly inoculated with one of the following bacteria: A. baumannii ATCC Accession No. 19606, Acinetobacter spp. ATCC 17903, Acinetobacter spp. ATCC 19004, Escherichia coli strain BL21, S. aureus, S. typhimurium strain AroA, P. aeruginosa or P. pneumotropica. After 5-6 hours of shaking at 37° C., growth was measured as absorbance at 595 nm. As a control, cultures were grown in the presence of 0.1% acetonitrile (i.e., the concentration present in 10 μM peptide).

A. baumannii = assay type: cell-based
Text: Broth dilution methods are e.g., described by Lorian (2007) In: Antibiotics in Laboratory Medicine, Fifth Edition; and In: Clinical and Laboratory Standards Institute, CLSI (formerly NCCLS), In: Methods for Dilution Antimicrobial Susceptibility Tests for Bacteria that Grow Aerobically—Approved Standard—Seventh Edition, CLSI document M7-A7, Villanova, Pa. (NCCLS; January 2006; Vol. 26 No. 2); and In: Clinical and Laboratory Standards Institute, CLSI (formerly NCCLS), Performance Standards for Antimicrobial Susceptibility Testing, Seventeenth Informational Supplement, M100-S17, Vol 27 No. 1 January 2007, all of which are incorporated herein by reference.
The present inventors used such methods to quantitate activity in vitro of antimicrobial peptides of the invention against bacterial isolates, including laboratory strains and 50 clinical isolates of A. baumannii, and S. aureus ATCC Accession No. 2992. Briefly, small volumes of broth are dispensed in sterile, plastic microtiter trays, and 100 μl of serially-diluted antimicrobial peptide (0.1-64 μg) and 100 μl test organism (approximately 1×10^5 C.F.U.), are added. Following aerobic incubation overnight at 35±2° C. Control samples lacked peptide (Growth control), or lacked peptide and bacteria (Sterility control). The trays were examined visually and the minimal inhibitory concentration (MIC) of peptide required to inhibit bacterial growth were determined. The minimum bactericidal concentration (MBC) was estimated by sub-culturing the wells for which no bacterial growth was visible to the naked eye, to thereby determine a concentration of antimicrobial that reduces the original inoculum by at least about 99.9%.

Structure (SMILES)	MIC (A. baumannii) [µM]	MBC (A. baumannii) [µM]	also measured
CC[C@H](C)[C@H](NC(=O)[C@H](CCCNC(=N)N)NC(=O)[C@H](CCCNC(=N)N)NC(=O)[C@H](CS)NC(=O)CN)C(=O)N[C@H](C(=O)NCC(=O)N[C@@H](Cc1ccccc1)C(=O)N[C@@H](CS)C(=O)N[C@H](C(=O)NCC(=O)N[C@@H](Cc1c[nH]c2ccccc12)C(=O)N[C@@H](CCCNC(=N)N)C(=O)N[C@@H](CC(C)C)C(=O)N[C@@H](CC(C)C)C(=O)N[C@@H](CC(C)C)C(=O)N[C@@H](CC(C)C)C(=O)N[C@@H](CC(C)C)C(=O)N[C@H](C(=O)NCC(=O)N[C@@H](CO)C(=O)NCC(=O)N[C@H](C(=O)O)C(C)C)[C@@H](C)O)C(C)C)[C@@H](C)O [Ac103] (H-GCRRITGFCVGWRLLLLLTGSGV-OH; N-terminus and C-terminus assumed)	–	–	selectively inhibited growth of S. aureus [1]: selectively inhibited growth
CC[C@H](C)[C@H](NC(=O)[C@H](CO)NC(=O)[C@H](CCCNC(=N)N)NC(=O)[C@@H]1CCCN1C(=O)[C@H](Cc1c[nH]c2ccccc12)NC(=O)[C@H](Cc1c[nH]cn1)NC(=O)[C@H](CC(N)=O)NC(=O)[C@H](Cc1c[nH]c2ccccc12)NC(=O)[C@H](CCCCN)NC(=O)[C@H](CCCCN)NC(=O)CNC(=O)[C@H](CCCCN)NC(=O)[C@H](CCC(N)=O)NC(=O)[C@H](CCCCN)NC(=O)[C@H](CCCCN)NC(=O)[C@H](CO)NC(=O)[C@H](CCCNC(=N)N)NC(=O)[C@H](CC(C)C)NC(=O)[C@H](CC(N)=O)NC(=O)[C@H](C)N)C(=O)N[C@@H](CCCCN)C(=O)N[C@@H](C)C(=O)O [Ac101] (H-ANLRSKKQKGKKWNHWPRSIKA-OH; N-terminus and C-terminus assumed)	–	–	selectively inhibited growth of Acinetobacter spp. ATCC 19004, and S. aureus [1]: selectively inhibited growth
CC[C@H](C)[C@H](NC(=O)[C@H](CC(C)C)NC(=O)[C@H](CCCNC(=N)N)NC(=O)[C@@H](NC(=O)[C@@H](NC(=O)[C@H](Cc1ccc(O)cc1)NC(=O)[C@H](CCCCN)NC(=O)[C@@H](N)Cc1ccc(O)cc1)[C@@H](C)CC)[C@@H](C)CC)C(=O)N[C@@H](CCC(=O)O)C(=O)N[C@@H](CC(N)=O)C(=O)N[C@@H](Cc1c[nH]c2ccccc12)C(=O)NCC(=O)N[C@@H](CCC(=O)O)C(=O)N[C@@H](CS)C(=O)NCC(=O)N[C@@H](CS)C(=O)N[C@@H](CCCNC(=N)N)C(=O)N[C@@H](Cc1ccc(O)cc1)C(=O)N[C@@H](CS)C(=O)N[C@@H](CCCNC(=N)N)C(=O)N[C@H](C(=O)N[C@H](C(=O)N[C@@H](CCCNC(=N)N)C(=O)O)C(C)C)[C@@H](C)CC [Ac18] (H-YKYIIRLIENWGECGCRYCRIVR-OH; N-terminus and C-terminus assumed)	–	–	selectively inhibited growth of S. aureus [1]: selectively inhibited growth
CC[C@H](C)[C@H](NC(=O)[C@@H]1CCCN1C(=O)[C@@H](NC(=O)[C@@H](NC(=O)[C@H](C)NC(=O)[C@H](CCCNC(=N)N)NC(=O)[C@H](CC(C)C)NC(=O)[C@@H](NC(=O)[C@H](C)NC(=O)[C@H](CCCNC(=N)N)NC(=O)[C@H](CC(C)C)NC(=O)[C@H](CCSC)NC(=O)[C@H](C)NC(=O)[C@@H](NC(=O)[C@@H]1CCCN1C(=O)[C@H](CC(C)C)NC(=O)[C@@H](N)C(C)C)C(C)C)[C@@H](C)O)[C@@H](C)O)C(C)C)C(=O)N[C@@H](CO)C(=O)N[C@@H](CCCNC(=N)N)C(=O)N[C@@H](CO)C(=O)N[C@@H](CCCNC(=N)N)C(=O)N[C@@H](CC(C)C)C(=O)N[C@@H](CCCNC(=N)N)C(=O)O [Ac434] (H-VLPVAMLRATLRATVPISRSRLR-OH; N-terminus and C-terminus assumed)	40 (≈ 103 µg/mL)	40 (≈ 103 µg/mL)	–
CC(C)C[C@H](NC(=O)[C@H](CS)NC(=O)[C@@H](NC(=O)[C@@H](NC(=O)[C@H](Cc1ccccc1)NC(=O)[C@H](Cc1c[nH]c2ccccc12)NC(=O)[C@@H](NC(=O)[C@H](CC(C)C)NC(=O)[C@H](Cc1ccccc1)NC(=O)[C@H](CS)NC(=O)[C@@H](NC(=O)[C@H](CC(N)=O)NC(=O)[C@@H](N)Cc1c[nH]cn1)[C@@H](C)O)[C@@H](C)O)[C@@H](C)O)[C@@H](C)O)C(=O)O [Ac472] (H-HNTCFLTWFTTCL-OH; N-terminus and C-terminus assumed)	15 (≈ 23.8 µg/mL)	–	MIC (μM) for non-amidated Peptide (A. baumannii): 15 µM; bactericidal or bacteriostatic against A. baumannii (A. baumannii): bacteriostatic; MBC (μM) (A. baumannii; A. baumannii (Table 8), reduces original inoculum by at least about 99.9%): bacteriostat

Further lines, with some results ahead:

MIC (A. baumannii) [µM]	Structure (SMILES)	MBC (A. baumannii) [µM]	also measured
40 (≈ 108 µg/mL)	CC[C@H](C)[C@H](NC(=O)[C@H](CCC(N)=O)NC(=O)[C@H](CCCNC(=N)N)NC(=O)[C@H](CS)NC(=O)[C@@H](NC(=O)[C@H](CCCNC(=N)N)NC(=O)[C@H](CCCNC(=N)N)NC(=O)[C@H](CC(C)C)NC(=O)[C@H](CC(=O)O)NC(=O)[C@H](CCC(=O)O)NC(=O)[C@H](CCCNC(=N)N)NC(=O)[C@H](CC(C)C)NC(=O)[C@H](CCCNC(=N)N)NC(=O)CNC(=O)[C@@H](N)CO)[C@@H](C)CC)C(=O)N[C@@H](CO)C(=O)N[C@@H](C)C(=O)N[C@@H](Cc1ccc(O)cc1)C(=O)N[C@@H](CCCCN)C(=O)N[C@@H](CO)C(=O)N[C@@H](CC(=O)O)C(=O)N[C@@H](CO)C(=O)N[C@@H](CO)C(=O)O [Ac340] (H-SGRLREDLRRICRQISAYKSDSS-OH; N-terminus and C-terminus assumed)	40 (≈ 108 µg/mL)	–
40 (≈ 97.5 µg/mL)	CC[C@H](C)[C@H](NC(=O)[C@H](CCCNC(=N)N)NC(=O)[C@@H]1CCCN1C(=O)CNC(=O)[C@H](C)NC(=O)[C@H](CCSC)NC(=O)[C@H](CCCNC(=N)N)NC(=O)[C@H](CC(C)C)NC(=O)[C@H](CCCNC(=N)N)NC(=O)[C@H](CS)NC(=O)[C@H](CS)NC(=O)[C@H](C)NC(=O)[C@H](Cc1c[nH]c2ccccc12)NC(=O)CNC(=O)[C@H](CS)NC(=O)CNC(=O)[C@H](C)NC(=O)[C@H](C)NC(=O)[C@@H]1CCCN1C(=O)[C@H](Cc1ccccc1)NC(=O)[C@H](Cc1c[nH]c2ccccc12)NC(=O)CN)C(=O)NCC(=O)O [Ac451] (H-GWFPAAGCGWACCRLRMAGPRIG-OH; N-terminus and C-terminus assumed)	–	–
40 (≈ 107 µg/mL)	CC[C@H](C)[C@H](NC(=O)[C@H](CO)NC(=O)[C@H](Cc1c[nH]c2ccccc12)NC(=O)[C@H](CS)NC(=O)[C@H](CCCNC(=N)N)NC(=O)[C@H](CS)NC(=O)[C@@H](NC(=O)[C@@H](NC(=O)[C@@H]1CCCN1C(=O)[C@H](CCCNC(=N)N)NC(=O)[C@H](C)NC(=O)[C@H](C)NC(=O)[C@H](CS)NC(=O)[C@H](CCCNC(=N)N)NC(=O)[C@H](CCCCN)NC(=O)[C@H](CCCNC(=N)N)NC(=O)[C@@H](N)[C@@H](C)O)[C@@H](C)O)[C@@H](C)O)C(=O)NCC(=O)N[C@@H](CCCNC(=N)N)C(=O)N[C@@H](C)C(=O)N[C@@H](Cc1c[nH]c2ccccc12)C(=O)N[C@@H](CCCCN)C(=O)N[C@@H](C)C(=O)O [Ac364] (H-TRKRCAARPTTCRCWSIGRAWKA-OH; N-terminus and C-terminus assumed)	40 (≈ 107 µg/mL)	–
30 (≈ 78.2 µg/mL)	CC[C@H](C)[C@H](NC(=O)[C@H](CCCNC(=N)N)NC(=O)[C@H](CCCNC(=N)N)NC(=O)[C@H](CC(C)C)NC(=O)[C@H](CC(=O)O)NC(=O)[C@H](CCC(=O)O)NC(=O)[C@H](CCCNC(=N)N)NC(=O)[C@H](CC(C)C)NC(=O)[C@H](CCCNC(=N)N)NC(=O)CNC(=O)[C@H](CO)NC(=O)[C@H](Cc1ccccc1)NC(=O)[C@@H](NC(=O)[C@H](CC(C)C)NC(=O)[C@@H](NC(=O)CNC(=O)[C@H](Cc1ccccc1)NC(=O)[C@@H](NC(=O)[C@@H](NC(=O)CNC(=O)CN)C(C)C)C(C)C)C(C)C)[C@@H](C)O)C(=O)N[C@@H](CS)C(=O)N[C@@H](CCCNC(=N)N)C(=O)O [Ac338] (H-GGVVFGVLTFSGRLREDLRRICR-OH; N-terminus and C-terminus assumed)	30 (≈ 78.2 µg/mL)	–
40 (≈ 102 µg/mL)	CC(C)C[C@H](NC(=O)CNC(=O)[C@H](CS)NC(=O)[C@H](CO)NC(=O)CNC(=O)[C@H](CCCNC(=N)N)NC(=O)[C@H](CS)NC(=O)[C@H](CCCCN)NC(=O)[C@H](CO)NC(=O)[C@H](CC(C)C)NC(=O)[C@@H](NC(=O)[C@H](CC(N)=O)NC(=O)[C@H](CS)NC(=O)[C@H](C)NC(=O)[C@H](CCCNC(=N)N)NC(=O)[C@@H](N)Cc1c[nH]c2ccccc12)[C@@H](C)O)C(=O)N[C@@H](CCCNC(=N)N)C(=O)N[C@H](C(=O)N[C@@H](Cc1c[nH]c2ccccc12)C(=O)N[C@@H](C)C(=O)NCC(=O)N[C@@H](CCCNC(=N)N)C(=O)NCC(=O)O)C(C)C [Ac380] (H-WRACNTLSKCRGSCGLRVWAGRG-OH; N-terminus and C-terminus assumed)	–	–
